What was measured:
[1] = tested on: DSS induced murine colitis; assay: Acute model of DSS induced murine colitis, prophylactic model; type: in vivo, C57BL/6 female mice
From the text: The present inventors hypothesised that the big-data approach could be used to identify novel candidate live biotherapeutics for inflammatory bowel disease. We therefore tested the therapeutic efficacy of I. colisanans MH27-1 in an acute model of DSS induced murine colitis (FIG. 4A) as this is a well-documented model of epithelial injury and repair. […] As expected, prednisone exacerbated the DSS induced weight loss (Yamamoto, 2013), however DSS induced weight loss was ameliorated by treatment with I. colisanans MH27-1 or F. prausnitzii A2-165 (FIG. 4B).
I. colisanans strains were grown to early stationary phase in PYG or YG/V. F. prausnitzii was grown in TY medium. The cell density of the individual cultures was calculated using a Helber Counting Chamber. To prepare the bacterial gavage solutions, individual cultures were centrifuged under a layer of sterile heavy mineral oil at 5,000 g for 10 minutes and the cell-free supernatant was then discarded. The cell pellets were washed in 1.5 ml of sterile anaerobic buffered diluent (38 ml/L each of salt solutions 2 & 3 (McSweeney, 2005), 1 ml/L of 0.1% (w/v) resazurin solution, 1 g/L L-cysteine) and then centrifuged again. […]
For the prophylactic model, six-week-old C57BL/6 female mice purchased from Animal Resources Centres (Western Australia, Australia) were randomised and then co-housed for 7 days prior to experimentation. […] Body weights and stool consistency were recorded daily. […]
Animals were examined with a small animal gastrointestinal endoscope (Karl Storz Endoskope, Tuttlingen, Germany) on days −1, 2 and 6 to assess the extent of colon mucosal inflammation (Marks, 2015; and Liu, 2019). […] To grade colitis severity, the extent of inflammation and epithelial injury in the tissue sections were graded semi-quantitatively using an established scoring system (Table 6). The samples were then randomised and subsequently scored in a blinded by a trained gastrointestinal pathologist.

DSS colitis = assay: Acute mouse model of DSS colitis, therapeutic model (I. colisanans MH27-2); type: in vivo, female C57BL/6 mice; conditions: 2.5% DSS, daily treatment Day 4 to Day 10
From the text: The therapeutic efficacy of I. colisanans MH27-2 in an acute mouse model of DSS colitis was examined, with prednisone acting as a positive control drug.
For the therapeutic model, groups of 10 or 20 female C57BL/6 mice were used. All animals, except those in the healthy group, were given 2.5% dextran sodium sulfate (DSS) in the drinking water for 6 days total (Day 0 to Day 5). DSS was then withdrawn and replaced with normal drinking water for a further 5 days (Day 6 to Day 10). For the treatments, mice were given once daily oral gavage of 200 μL of I. colisanans MH27-2 at a dose of 2×10^8 viable cells per day, or vehicle consisting of sterile glycerol and phosphate buffered salt solution. The positive control drug prednisone was similarly administered via oral gavage at a dose of 2 mg/kg per day. Treatments started on Day 4 and were given for 7 consecutive days until Day 10. Animals were sacrificed on Day 10 approximately 4 hours after the final treatment. Colon was harvested, rinsed, weighed, photographed, cut longitudinally. Colon tissue was fixed in 4% formalin and kept in 70% ethanol for histopathology using the Swiss-roll method.

[2] = tested on: ZO1 expression in T84 cells; assay: IFNγ-mediated loss of ZO1 expression in T84 cells (immunofluorescence); type: cell-based, human; conditions: pre-treatment with 1 mM metabolite for 18 hours, IFNγ 48 hours
[3] = tested on: mild to moderate flares of ulcerative colitis; conditions: first line therapy; cited from earlier work
[4] = tested on: IL-6 mediated activation of STAT3; assay: IL-6 mediated STAT3 activation, HEK-Blue IL-6 reporter cell line (SEAP); type: cell-based, human; conditions: control inhibitor, 10 μM
From the text: (§1) Increased levels of the pro-inflammatory cytokine IL-6 and signalling via its receptor IL-6R is associated with IBD pathogenesis. […] These effects are mediated by IL-6 receptor binding which causes JAK kinase activation and STAT3 dimerization in combination with activation of MAPK/ERK and other downstream kinases. Here, we examined whether I. colisanans MH27-1 and MH27-2 can suppress IL-6 classical and trans signalling mediated activation of STAT3 using the HEK-Blue™ IL-6 reporter cell line. The HEK-Blue™ IL-6 reporter cell line constitutively expresses the human IL-6 receptor and binding of IL-6 to the receptor triggers expression of a STAT3-responsive SEAP reporter. […] Additionally, I. colisanans MH27-2 suppressed IL-6 trans signalling mediated activation of STAT3 (FIG. 6G).
(§2) To assess IL-6 and IL-6/IL-6R-mediated STAT3 suppressive activity, three independent colonies were inoculated and grown until early stationary phase. […]
(§3) IL-6- and IL-6/IL-6R mediated STAT3 activity was assessed using the HEK Blue IL-6 cell line (Invivogen). […] After 24 hours, the STAT3 regulated SEAP reporter activity was assessed using Quanti Blue solution as recommended by the manufacturer (Invivogen). […] Cytotoxicity was assessed using the CellTiter-Glo® 2.0 Cell Viability Assay (Promega, Australia) as recommended by the manufacturer.

[5] = tested on: IL-6 trans signalling mediated activation of STAT3; assay: IL-6/IL-6R trans signalling mediated STAT3 activation, HEK-Blue IL-6 reporter cell line; type: cell-based, human; conditions: control inhibitor, 10 μM
From the text: as §1, §2, §3

[6] = tested on: IL-23-mediated activation of STAT3; assay: IL-23 mediated STAT3 activation, HEK-Blue IL-23 reporter cell line (SEAP); type: cell-based, human
From the text: The present inventors next sought to investigate whether bacterial products naturally produced by the gut bacterium I. colisanans MH27, can modulate IL-23 mediated activation of STAT3. The JAK-STAT immune axis is a recognised and validated drug target for IBD (Salas et al., 2020) and other diseases (McLornan et al., 2021) with JAK-STAT pathway signalling targeted by several approved IBD therapeutics including anti-IL-23 antibodies (e.g., Ustekinumab) and small molecule inhibitors (e.g., tofacitinib) (Hu et al., 2021). As STAT3 suppression can reduce damaging inflammation, I. colisanans MH27 and/or its bioactives could potentially be used as novel immunoregulatory therapies for IBD and other diseases. The present inventors therefore examined whether I. colisanans MH27 can suppress IL-23-mediated activation of STAT3 using the HEK-Blue™ IL-23 reporter cell line. […]
IL-23-mediated STAT3 activity was assessed using the HEK Blue IL-23 cell line (Invivogen). […] SEAP is secreted into the medium and the extent of SEAP expression can be quantified using QUANTI-Blue solution. […]
SEAP production was quantified using QUANTI-BIue™ solution and recorded as optical density (OD) at 630 nm using a PHERAstar FS plate reader (BMG Labtech). […]

[7] = DSS treated mice, colon histology

Compound: C[C@]12C=CC(=O)C=C1CC[C@@H]1[C@@H]2C(=O)C[C@@]2(C)[C@H]1CC[C@]2(O)C(=O)CO [prednisone]
- DSS induced weight loss (body weight) ([1]; 3.5% DSS, daily treatment, compared to DSS+vehicle): exacerbated
- disease pathology (histopathological score) [1, 7]: significant improvement in disease pathology
- epithelial injury [1, 7]: ameliorated
- histological evidence of colitis (DSS colitis): ameliorated

Compound: O=C(O)C=Cc1c[nH]c2ccccc12 [IAyA, indole-3-acrylic acid]
- IFNγ-induced reduction in ZO1 expression [2]: significantly ameliorated

Compound: Nc1ccc(O)c(C(=O)O)c1 [Mesalmine]
- response rates [3]: 40%-70%

Compound: C[C@@H]1CCN(C(=O)CC#N)C[C@@H]1N(C)c1ncnc2[nH]ccc12 [tofacitinib]
- IL-6 mediated activation of STAT3 [4]: fully prevented
- IL-6/IL-6R mediated activation of STAT3 [5]: fully prevented
- IL-23 mediated activation of STAT3 ([6]; control inhibitor, 5 μM): fully prevented

Compound: O=C1NC(Cc2ccccc2)C(=O)N2CCCC12 (centres unmarked) [cyclo(-Phe-Pro)]
- IL-23 mediated activation of STAT3 ([6]; pure metabolite, relative to the vehicle control): suppressed

Compound: O=C(O)CCc1c[nH]c2ccccc12 [IPA, indole-3-proprionic acid]
- IFNγ-induced reduction in ZO1 expression [2]: significantly ameliorated

— patent US20260027161A1, “BACTERIAL STRAINS FOR TREATING DISEASE” (MICROBA IP PTY LTD, priority 2021, published 2026)
